Measurements: the CheMixHub viscosity set

Test: xn = mol fraction of the nth substance listed

CCCCOC(=O)c1ccccc1C(=O)OCCCC + CCCCO
303.15 K, 101.33 kPa
Conditions	viscosity [mPa·s]
x1 = 0.1016	2.585
x1 = 0.1991	3.095
x1 = 0.2997	3.757
x1 = 0.4016	4.553
x1 = 0.5004	5.431
x1 = 0.5969	6.463
x1 = 0.6966	7.645
x1 = 0.8044	9.216
x1 = 0.8662	10.27

C=CC#N + CCCCOC(C)=O
viscosity [mPa·s]
Conditions	298.15 K	303.15 K	308.15 K
101.3 kPa, x1 = 0.0988	–	0.6248	–
101.3 kPa, x1 = 0.2033	–	0.5998	–
101.3 kPa, x1 = 0.3022	–	0.5737	–
101.3 kPa, x1 = 0.401	–	0.5437	–
101.3 kPa, x1 = 0.4962	–	0.5133	–
101.3 kPa, x1 = 0.5941	–	0.4775	–
101.3 kPa, x1 = 0.6991	–	0.4364	–
101.3 kPa, x1 = 0.7966	–	0.3951	–
101.3 kPa, x1 = 0.8992	–	0.3527	–
101.33 kPa, x1 = 0.099	0.651	0.607	0.571
101.33 kPa, x1 = 0.1971	0.626	0.582	0.547
101.33 kPa, x1 = 0.2999	0.596	0.553	0.522
101.33 kPa, x1 = 0.404	0.561	0.524	0.494
101.33 kPa, x1 = 0.5006	0.526	0.49	0.464
101.33 kPa, x1 = 0.5992	0.488	0.458	0.433
101.33 kPa, x1 = 0.7004	0.449	0.421	0.398
101.33 kPa, x1 = 0.8014	0.412	0.384	0.365
101.33 kPa, x1 = 0.9031	0.374	0.349	0.33

CCCCN(CCCC)CCCC + CCCCOCCO
viscosity [mPa·s], 100 kPa
Conditions	298.15 K	303.15 K	308.15 K
x2 = 0.05	1.31	1.19	1.12
x2 = 0.1004	1.37	1.23	1.15
x2 = 0.1502	1.43	1.28	1.19
x2 = 0.2006	1.49	1.33	1.23
x2 = 0.2999	1.62	1.43	1.32
x2 = 0.3999	1.76	1.54	1.43
x2 = 0.5046	1.93	1.69	1.55
x2 = 0.6	2.1	1.83	1.67
x2 = 0.7	2.29	1.99	1.8
x2 = 0.8	2.5	2.16	1.96
x2 = 0.8997	2.7	2.36	2.14
x2 = 0.9498	2.79	2.43	2.21

CN(C)c1ccccc1 + CCCCOCCO
viscosity [mPa·s], 101.3 kPa
Conditions	x2 = 0.0991	x2 = 0.2007	x2 = 0.3163	x2 = 0.3988	x2 = 0.4955	x2 = 0.5977	x2 = 0.6989	x2 = 0.7971	x2 = 0.8968
298 K	1.298	1.369	1.479	1.586	1.715	1.88	2.076	2.281	2.555
303 K	1.184	1.245	1.338	1.42	1.524	1.666	1.825	2.002	2.23
308 K	1.096	1.14	1.221	1.291	1.384	1.501	1.643	1.79	1.991
313 K	1.022	1.063	1.129	1.186	1.266	1.369	1.486	1.617	1.781
318 K	0.947	0.984	1.041	1.089	1.156	1.217	1.346	1.459	1.601

O=C1c2ccccc2C(=O)C1(O)O + CCCC[N+](CCCC)(CCCC)CCCC.O=S(=O)([O-])O
Conditions	viscosity [mPa·s]
323.15 K, 100 kPa, x2 = 0.571	48500

C=CC#N + CCCO
viscosity [mPa·s], 101.33 kPa
Conditions	x1 = 0.1031	x1 = 0.203	x1 = 0.307	x1 = 0.4079	x1 = 0.5104	x1 = 0.6066	x1 = 0.7057	x1 = 0.8002	x1 = 0.9032
298.15 K	1.409	1.074	0.85	0.688	0.578	0.497	0.435	0.393	0.36
303.15 K	1.264	0.975	0.778	0.635	0.538	0.465	0.412	0.373	0.343
308.15 K	1.139	0.888	0.71	0.59	0.503	0.438	0.389	0.355	0.328

CC(=O)CC(C)=O + CCCO
303.15 K, 101 kPa
Conditions	viscosity [mPa·s]
x1 = 0.05	1.453
x1 = 0.1	1.271
x1 = 0.2999	0.922
x1 = 0.4999	0.769
x1 = 0.6999	0.697
x1 = 0.8994	0.673
x1 = 0.9487	0.667

CN(C)c1ccccc1 + CCCO
viscosity [mPa·s]
Conditions	303.15 K	308.15 K	313.15 K	318.15 K	323.15 K
101 kPa, x1 = 0.0503	1.685	–	–	–	–
101 kPa, x1 = 0.1049	1.625	–	–	–	–
101 kPa, x1 = 0.1825	1.552	–	–	–	–
101 kPa, x1 = 0.2575	1.482	–	–	–	–
101 kPa, x1 = 0.3423	1.413	–	–	–	–
101 kPa, x1 = 0.3929	1.377	–	–	–	–
101 kPa, x1 = 0.4121	1.365	–	–	–	–
101 kPa, x1 = 0.4703	1.328	–	–	–	–
101 kPa, x1 = 0.5523	1.29	–	–	–	–
101 kPa, x1 = 0.6229	1.265	–	–	–	–
101 kPa, x1 = 0.7221	1.242	–	–	–	–
101 kPa, x1 = 0.8096	1.225	–	–	–	–
101 kPa, x1 = 0.9023	1.198	–	–	–	–
101.33 kPa, x1 = 0.1011	1.587	1.335	1.205	1.091	0.9913
101.33 kPa, x1 = 0.1989	1.345	1.214	1.1	1.005	0.9196
101.33 kPa, x1 = 0.2994	1.249	1.134	1.033	0.9491	0.8709
101.33 kPa, x1 = 0.4015	1.194	1.09	0.9974	0.9328	0.8513
101.33 kPa, x1 = 0.4992	1.153	1.057	0.9763	0.9019	0.8384
101.33 kPa, x1 = 0.598	1.126	1.034	0.9608	0.8881	0.8254
101.33 kPa, x1 = 0.7024	1.117	1.044	0.965	0.8981	0.8357
101.33 kPa, x1 = 0.798	1.126	1.037	0.9602	0.8961	0.8364
101.33 kPa, x1 = 0.9026	1.154	1.071	0.9947	0.9284	0.8751

C=CC#N + CCCOC(C)=O
viscosity [mPa·s], 101.33 kPa
Conditions	x1 = 0.1052	x1 = 0.1835	x1 = 0.2994	x1 = 0.4057	x1 = 0.4982	x1 = 0.6097	x1 = 0.7023	x1 = 0.8019	x1 = 0.901
298.15 K	0.54	0.524	0.5	0.479	0.459	0.435	0.411	0.387	0.362
303.15 K	0.504	0.489	0.47	0.452	0.434	0.411	0.391	0.368	0.345
308.15 K	0.472	0.46	0.442	0.428	0.411	0.392	0.372	0.352	0.331

C=CC#N + CCO
viscosity [mPa·s], 101.33 kPa
Conditions	x1 = 0.1008	x1 = 0.1009	x1 = 0.2017	x1 = 0.3022	x1 = 0.403	x1 = 0.5025	x1 = 0.6044	x1 = 0.7032	x1 = 0.8006	x1 = 0.8993
298.15 K	–	0.859	0.704	0.593	0.513	0.458	0.415	0.384	0.363	0.348
303.15 K	–	0.787	0.648	0.551	0.48	0.431	0.392	0.364	0.345	0.332
308.15 K	0.724	–	0.602	0.513	0.451	0.405	0.371	0.347	0.329	0.318

CC(=O)CC(C)=O + CCO
303.15 K, 101 kPa
Conditions	viscosity [mPa·s]
x1 = 0.05	0.896
x1 = 0.0997	0.825
x1 = 0.3	0.702
x1 = 0.5	0.655
x1 = 0.6989	0.644
x1 = 0.9	0.651
x1 = 0.948	0.657

CC(C)(N)CO + CCO
313.15 K, 100 kPa
Conditions	viscosity [mPa·s]
x1 = 0.03	0.91
x1 = 0.054	1.05
x1 = 0.11	1.3
x1 = 0.26	2.32

CCCCC(C)O (configuration not stated) + CCO
298.15 K, 101.33 kPa
Conditions	viscosity [mPa·s]
x2 = 0.1065	3.783
x2 = 0.2102	3.485
x2 = 0.3167	3.115
x2 = 0.4096	2.827
x2 = 0.5036	2.512
x2 = 0.6033	2.16
x2 = 0.7079	1.836
x2 = 0.8023	1.572
x2 = 0.9063	1.301

CCCCOC(=O)c1ccccc1C(=O)OCCCC + CCO
303.15 K, 101.33 kPa
Conditions	viscosity [mPa·s]
x1 = 0.0982	1.555
x1 = 0.1991	2.302
x1 = 0.4046	4.211
x1 = 0.5046	5.31
x1 = 0.5634	6.002
x1 = 0.694	7.761
x1 = 0.807	9.476
x1 = 0.8877	10.91
x1 = 0.9316	11.68
